The text below walks through data of patent publication US20100173888A1 (Pfizer Inc, priority 2008, published 2010).

Molecules are shown by their SMILES. pIC50: −log10 of the molar value.

As a reminder, the pIC50 is the negative decadic logarithm of the IC50, by convention in mol/L.

In assay [1] the target is T1, human recombinant H-PGDS (Homo sapiens, UniProt O60760). In words: Slightly modified fluorescence intensity h-PGDS TBA enzyme assay (1:40,000 enzyme, 40 second reaction, 1/2 log dilutions, top concentration typically 10 μM). In kind it is biochemical. The following applies: slightly modified assay: 1:40,000 human recombinant H-PGDS. The procedure:
Fluoresecence Intensity h-PGDSTBA Enzyme Assay
Prostaglandin D Synthase (PGDS) converts the substrate prostaglandin H2 (PGH2) to prostaglandin D2. The depletion of PGH2 was measured via an Fe(II) reduction of the remaining PGH2 to malondialdehyde (MDA) and 12-HHT. The enzyme assay is based on the quantitative formation of a fluorescent complex from the non-fluorescent compounds MDA and 2-thiobarbituric acid (TBA), substantially as described in U.S. patent application publication US-2004/152148 by Lombardt.
Examples 6-8, 11a-16, 23, 26-47, 49-103, 105-113, 115-118 and 126-128 were tested in a slightly modified assay: The enzyme assay (30 μls during biological process) contained 100 mM Trizma pH 8.0, 100 μM MgCl2, 0.1 mg/ml IgG Rabbit serum, 5.0 μM PGH2 (Cayman; ethanol solution, #17020), 2.5 mM L-Glutathione (Sigma; reduced form #G4251), 1:40,000 human recombinant H-PGDS (from 1 mg/ml), 0.5% DMSO and inhibitor (varying concentration). 3 μls of diluted inhibitor (dissolved in DMSO) was plated into a 384-well assay plate followed by a 24 μl addition of an enzyme solution containing h-PGDS, Trizma, MgCl2, IgG and L-Glutathione. After pre-incubation of inhibitor and enzyme solution for 10 minutes at room temperature, the reaction was initiated with a 3 μl addition of substrate solution in 10 mM HCl. The reaction was terminated after 40 second by the addition of 3 μl stop buffer containing FeCl2 and citric acid. After addition of 45 μls of TBA plates were heated for one hour in a 70° C. oven. Plates were cooled at room temperature overnight and read on a plate reader the next day with excitation @ 530 nm and emission @ 560 nm. IC50' s of inhibitors were calculated with a 4-parameter fit using 11 inhibitor concentrations in duplicate with ½ log serial dilutions. Controls on each plate included no inhibitor (zero % effect) and an inhibitor 500-fold in excess of its' IC50 (100% effect). The highest inhibitor concentration tested was typically 10 μM.

Assay [2] concerns the target T1, human recombinant H-PGDS. The experiment in a line: Fluorescence intensity h-PGDS TBA enzyme assay (PGH2 depletion, MDA/TBA fluorescence). The format is biochemical. The conditions noted are these: 1:175,000 human recombinant H-PGDS, 42 second reaction, 3-fold serial dilutions, highest concentration typically 1 μM. The essentials: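 Recombinant human H-PGDS preincubated with inhibitor 10 min at room temperature in pH 8.0 Tris, MgCl2, IgG, 2.5 mM glutathione, 0.5% DMSO. Reaction with 5.0 μM PGH2 stopped at 42 s with FeCl2/citric acid; MDA–TBA fluorescence (ex 530/em 565 nm) read after 70° C. IC50 by 4-parameter fit, 11 concentrations.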

T1 sequence (O60760 whole entry): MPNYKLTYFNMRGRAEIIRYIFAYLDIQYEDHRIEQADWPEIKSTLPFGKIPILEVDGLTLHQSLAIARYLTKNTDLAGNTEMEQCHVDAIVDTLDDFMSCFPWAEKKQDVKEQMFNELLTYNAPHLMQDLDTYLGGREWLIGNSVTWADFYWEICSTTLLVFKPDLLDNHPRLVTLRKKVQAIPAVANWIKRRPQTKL

As for `CN(C)C[C@H]1CC[C@@H](NC(=O)c2ccc(-c3cccc(F)c3)nc2)CC1` [Example 67, N-{cis-4-[(Dimethylamino)methyl]cyclohexyl}-6-(3-fluorophenyl)nicotinamide], the pIC50 at human recombinant H-PGDS [1] was 6.93.

For `O=C(N[C@@H]1CCCC[C@@H]1O)c1ccc(-c2cccc(F)c2)nc1` (relative stereo) [Example 23], on human recombinant H-PGDS [1], the pIC50 is 7.76.

`CNC(=O)N(C)[C@H]1CC[C@H](NC(=O)c2ccc(-c3cccc(F)c3)nc2)CC1` [Example 272, 6-(3-Fluorophenyl)-N-{trans-4-[methyl(methylcarbamoyl)amino]cyclohexyl}nicotinamide]: on human recombinant H-PGDS [2], the pIC50 is 7.96.

For `O=C(N[C@@H]1CCC[C@@H](C(=O)NCCCO)C1)c1ccc(-c2cccc(F)c2)nc1` (relative stereo) [Example 242], on human recombinant H-PGDS [2], the negative-log IC50 (pIC50) is 7.70.

`O=C(N[C@H]1CCC[C@H](CO)C1)c1ccc(-c2cccc(F)c2)nc1` (relative stereo) [Example 250]: on human recombinant H-PGDS [2], the pIC50 was 7.58.

Regarding `O=C(NC1CCC(O)(C(F)(F)F)CC1)c1ccc(-c2cccc(F)c2)nc1` (mixture of isomers) [Example 151, 6-(3-Fluorophenyl)-N-(trans 4-hydroxy-4-trifluoromethylcyclohexyl)nicotinamide and 6-(3-Fluorophenyl)-N-(cis 4-hydroxy-4-trifluoromethylcyclohexyl)nicotinamide], on human recombinant H-PGDS [2], the negative-log IC50 (pIC50) was 7.99.

Regarding `O=C(N[C@@H]1CCCC[C@@H]1CO)c1ccc(-c2cccc(F)c2)nc1` [Example 24], the pIC50 on human recombinant H-PGDS [2] was 7.70.

Take `O=C(NC1(c2ccccn2)CC1)c1ccc(-c2cccc(F)c2)nc1` [Example 1, 6-(3-Fluorophenyl)-N-(1-pyridin-2-ylcyclopropyl)nicotinamide]: the pIC50 on human recombinant H-PGDS [2] was 7.19.

For `CCN1CCN(C(=O)C2(C#N)CCCC(NC(=O)c3ccc(-c4cccc(F)c4)nc3)C2)CC1` (stereo not drawn) [Example 264, N-{3-Cyano-3-[(4-ethylpiperazin-1-yl)carbonyl]cyclohexyl}-6-(3-fluorophenyl)nicotinamide], the negative logarithm of the IC50 (pIC50) on human recombinant H-PGDS [2] was 8.04.

As for `O=C(N[C@H]1CC[C@@H](C(=O)N2CCOCC2)C1)c1ccc(-c2cccc(F)c2)nc1` [Example 170, 6-(3-Fluorophenyl)-N-[(1S,3R)-3-(morpholin-4-ylcarbonyl)cyclopentyl]nicotinamide], at human recombinant H-PGDS [2], the pIC50 was 8.37.

Regarding `O=C(N[C@@H]1CCC[C@@H](C(=O)N2CCNCC2)C1)c1ccc(-c2cccc(F)c2)nc1` (relative stereo) [Example 243], the pIC50 on human recombinant H-PGDS [2] is 7.54.

Turning to `COCC1(O)CCC(NC(=O)c2ccc(-c3cccc(F)c3)nc2)CC1` (stereo not drawn) [Example 235, 6-(3-Fluorophenyl)-N-[4-hydroxy-4-(methoxymethyl)cyclohexyl]nicotinamide], the negative logarithm of the IC50 (pIC50) on human recombinant H-PGDS [2] was 7.93.

Take `O=C(N[C@H]1CCC[C@@H](C(=O)N2CCC(O)CC2)C1)c1ccc(-c2cccc(F)c2)nc1` [Example 260, 6-(3-Fluorophenyl)-N-{(1S,3R)-3-[(4-hydroxypiperidin-1-yl)carbonyl]cyclohexyl}nicotinamide]: the negative-log IC50 (pIC50) on human recombinant H-PGDS [2] is 7.22.

`CN1CCN(C(=O)C2(C#N)CCCC(NC(=O)c3ccc(-c4cccc(F)c4)nc3)C2)CC1` (stereo not drawn) [Example 263, N-{3-Cyano-3-[(4-methylpiperazin-1-yl)carbonyl]cyclohexyl}-6-(3-fluorophenyl)nicotinamide]: on human recombinant H-PGDS [2], the pIC50 is 8.30.

In the case of `CCCOCC1(O)CCC(NC(=O)c2ccc(-c3cccc(F)c3)nc2)CC1` (stereo not drawn) [Example 228, 6-(3-Fluorophenyl)-N-[4-hydroxy-4-(propoxymethyl)cyclohexyl]nicotinamide], the pIC50 at human recombinant H-PGDS [2] was 7.76.

With `Cc1cccc(-c2ccc(C(=O)NC3CCCCC3)cn2)c1` [Example 19, N-Cyclohexyl-6-(3-methylphenyl)nicotinamide], the pIC50 on human recombinant H-PGDS [2] is 7.99.

As for `O=C(CO)N[C@H]1CC[C@@H](NC(=O)c2ccc(-c3cccc(F)c3)nc2)CC1` [Example 220, 6-(3-fluorophenyl)-N-[cis-4-(glycoloylamino)cyclohexyl]nicotinamide], at human recombinant H-PGDS [2], the pIC50 was 7.49.

Regarding `O=C(NC1CCC(F)(F)CC1)c1ccc(-c2cccc(F)c2)nc1` [Example 119, N-(4,4-Difluorocyclohexyl)-6-(3-fluorophenyl)nicotinamide], the negative-log IC50 (pIC50) at human recombinant H-PGDS [2] was 8.89.

Turning to `C[C@H](N)C(=O)N[C@H]1CC[C@H](NC(=O)c2ccc(-c3cccc(F)c3)nc2)CC1` [Example 113R, N-[trans-4-(L-alanylamino)cyclohexyl]-6-(3-fluorophenyl)nicotinamide], the pIC50 on human recombinant H-PGDS [2] is 7.86.

With `COCCNC(=O)[C@H]1CC[C@H](NC(=O)c2ccc(-c3cccc(F)c3)nc2)CC1` [Example 113I, 6-(3-fluorophenyl)-N-{trans-4-[(2-methoxyethyl)carbamoyl]cyclohexyl}nicotinamide], the pIC50 at human recombinant H-PGDS [2] is 7.98.

As for `O=C(NC1CCCc2ccccc21)c1ccc(-c2ccc(F)cc2)nc1` (stereo not drawn) [Example 123, 6-(4-Fluorophenyl)-N-(1,2,3,4-tetrahydronaphthalen-1-yl)nicotinamide], the negative-log IC50 (pIC50) on human recombinant H-PGDS [2] was 7.52.

As to `O=C(NC1CCCc2ccccc21)c1ccc(-c2cc(F)cc(F)c2)nc1` (stereo not drawn) [Example 124, 6-(3,5-Difluorophenyl)-N-(1,2,3,4-tetrahydronaphthalen-1-yl)nicotinamide], the pIC50 on human recombinant H-PGDS [2] is 7.64.

For the molecule `CN1CCN(C(=O)[C@@H]2CC[C@H](NC(=O)c3ccc(-c4cccc(F)c4)nc3)C2)CC1=O` [Example 173, 6-(3-Fluorophenyl)-N-{(1S,3R)-3-[(4-methyl-3-oxopiperazin-1-yl)carbonyl]cyclopentyl}nicotinamide], the pIC50 on human recombinant H-PGDS [2] was 7.67.

As to `O=C(NC1CCC(O)(CO)CC1)c1ccc(-c2cccc(F)c2)nc1` (stereo not drawn) [Example 227, 6-(3-Fluorophenyl)-N-[4-hydroxy-4-(hydroxymethyl)cyclohexyl]nicotinamide], on human recombinant H-PGDS [2], the pIC50 is 7.62.

In the case of `COCC(=O)N[C@@H]1CCC[C@H](NC(=O)c2ccc(-c3cccc(F)c3)nc2)C1` (relative stereo) [Example 203, 6-(3-Fluorophenyl)-N-cis-[3-(2-methoxyacetylamino)cyclohexyl]nicotinamide], on human recombinant H-PGDS [2], the negative logarithm of the IC50 (pIC50) is 7.77.

In the case of `CC(C)(O)[C@@H]1CC[C@H](NC(=O)c2ccc(-c3cccc(F)c3)nc2)C1` [Example 162, 6-(3-fluorophenyl)-N-[(1S,3R)-3-(1-hydroxy-1-methylethyl)cyclopentyl]nicotinamide], the negative-log IC50 (pIC50) on human recombinant H-PGDS [2] was 7.64.

As to `CN(C)CCCNC(=O)[C@H]1CC[C@H](NC(=O)c2ccc(-c3cccc(F)c3)nc2)CC1` [Example 113A, N-(trans-4-{[3-(dimethylamino)propyl]carbamoyl}cyclohexyl)-6-(3-fluorophenyl)nicotinamide], the pIC50 on human recombinant H-PGDS [2] is 7.68.

On to `O=C(N[C@H]1CC[C@H](C(=O)NCCCO)CC1)c1ccc(-c2cccc(F)c2)nc1` [Example 113G, 6-(3-fluorophenyl)-N-{trans-4-[(3-hydroxypropyl)carbamoyl]cyclohexyl}nicotinamide], for which the pIC50 on human recombinant H-PGDS [2] is 8.35.

Turning to `CC(C)OCC1(O)CCC(NC(=O)c2ccc(-c3cccc(F)c3)nc2)CC1` (stereo not drawn) [Example 226, 6-(3-Fluorophenyl)-N-[4-hydroxy-4-(isopropoxymethyl)cyclohexyl]nicotinamide], the pIC50 at human recombinant H-PGDS [2] is 7.88.

For `COCCNC(=O)[C@@H]1CC[C@H](NC(=O)c2ccc(-c3cccc(F)c3)nc2)C1` [Example 169, 6-(3-Fluorophenyl)-N-{(1S,3R)-3-[(2-methoxyethyl)carbamoyl]cyclopentyl}nicotinamide], the negative-log IC50 (pIC50) at human recombinant H-PGDS [2] was 7.82.

Take `NC1CCN(C(=O)[C@@H]2CC[C@H](NC(=O)c3ccc(-c4cccc(F)c4)nc3)C2)CC1` [Example 177, N-{(1S,3R)-3-[(4-Aminopiperidin-1-yl)carbonyl]cyclopentyl}-6-(3-fluorophenyl)nicotinamide]: the pIC50 at human recombinant H-PGDS [2] was 7.67.

With `CC(C)(O)C1CCC(NC(=O)c2ccc(-c3cccc(F)c3)nc2)CC1` (stereo not drawn) [Example 48, 6-(3-Fluorophenyl)-N-[4-(1-hydroxy-1-methylethyl)cyclohexyl]nicotinamide], the pIC50 on human recombinant H-PGDS [2] was 9.21.

Turning to `O=C(N[C@H]1CC[C@@H](C(=O)N2CCNCC2)C1)c1ccc(-c2cccc(F)c2)nc1` [Example 176, 6-(3-Fluorophenyl)-N-[(1S,3R)-3-(piperazin-1-ylcarbonyl)cyclopentyl]nicotinamide], on human recombinant H-PGDS [2], the pIC50 is 8.05.
